The source of these data is patent US20220096516A1, “OLIGONUCLEOTIDE MOLECULE AND APPLICATION THEREOF IN TUMOR THERAPY” (Ractigen Therapeutics, priority 2019, published 2022).

d = 2'-deoxy (DNA); r = 2'-OH (RNA)

The series has as its system LHPP gene. Nature of the series: High-throughput screening of saRNAs targeting LHPP promoter: LHPP mRNA by one-step RT-qPCR in Huh7 cells. The format is cell-based, human. As to conditions: 10 nM saRNA, 72 hours, relative to control (Mock). An outline of the steps:
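Huh7 cells were transfected with 10 nM saRNA using RNAiMax and lysed 72 h later. LHPP mRNA was quantified by one-step RT-qPCR in triplicate wells. Expression was normalised to HPRT1 and TBP and given as fold change versus mock-transfected cells.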

Consider “RAG7-846: saRNA duplex; sense AAGGUUCCGAGGGGCCAUUTT (SEQ ID NO: 11), antisense AAUGGCCCCUCGGAACCUUTT (SEQ ID NO: 175) (sugars from the 5' end r19 d2, backbone not given here)”, for which the “Fold of changes in relative LHPP mRNA expression level” value is recorded as 1.68 fold and the “Fold of changes in relative LHPP mRNA expression level (log2)” value turned out to be 0.75 log2.
Take “RAG7-691: saRNA duplex; sense UCCUAUGCAUCCUCAUCUATT (SEQ ID NO: 30), antisense UAGAUGAGGAUGCAUAGGATT (SEQ ID NO: 194) (sugars from the 5' end r19 d2, backbone not given here)”: the “Fold of changes in relative LHPP mRNA expression level” value worked out at 1.50 fold and the “Fold of changes in relative LHPP mRNA expression level (log2)” value was 0.58 log2.
Regarding “RAG7-148: saRNA duplex; sense UUUUCUGCUUUUCCUGCUCTT (SEQ ID NO: 67), antisense GAGCAGGAAAAGCAGAAAATT (SEQ ID NO: 231) (sugars from the 5' end r19 d2, backbone not given here)”, the “Fold of changes in relative LHPP mRNA expression level” value was determined as 1.30 fold and the “Fold of changes in relative LHPP mRNA expression level (log2)” value was 0.38 log2.
For “RAG7-839: saRNA duplex; sense CGAGGGGCCAUUGAGGAAATT (SEQ ID NO: 158), antisense UUUCCUCAAUGGCCCCUCGTT (SEQ ID NO: 322) (sugars from the 5' end r19 d2, backbone not given here)” the same measures were 1.11 fold and 0.15 log2.
In the same order, the values of “RAG7-168: saRNA duplex; sense UGACCUUUCUUAGGGACUUTT (SEQ ID NO: 91), antisense AAGUCCCUAAGAAAGGUCATT (SEQ ID NO: 255) (sugars from the 5' end r19 d2, backbone not given here)” are 1.24 fold and 0.31 log2.
For “RAG7-735: saRNA duplex; sense GGGUUUAACGCAUUGUGAUTT (SEQ ID NO: 114), antisense AUCACAAUGCGUUAAACCCTT (SEQ ID NO: 278) (sugars from the 5' end r19 d2, backbone not given here)” the same measures were 1.19 fold and 0.25 log2.
As to “RAG7-686: saRNA duplex; sense UGCAUCCUCAUCUAUGCAGTT (SEQ ID NO: 86), antisense CUGCAUAGAUGAGGAUGCATT (SEQ ID NO: 250) (sugars from the 5' end r19 d2, backbone not given here)”, the “Fold of changes in relative LHPP mRNA expression level” value turned out to be 1.25 fold and the “Fold of changes in relative LHPP mRNA expression level (log2)” value is given as 0.32 log2.
For “RAG7-34: saRNA duplex; sense GUUUGCACCCGGUCUUCUUTT (SEQ ID NO: 26), antisense AAGAAGACCGGGUGCAAACTT (SEQ ID NO: 190) (sugars from the 5' end r19 d2, backbone not given here)” the same measures were 1.51 fold and 0.59 log2.
In the same order, the values of “RAG7-100: saRNA duplex; sense UUCCGAAAAGGACACCGUUTT (SEQ ID NO: 125), antisense AACGGUGUCCUUUUCGGAATT (SEQ ID NO: 289) (sugars from the 5' end r19 d2, backbone not given here)” are 1.17 fold and 0.22 log2.
For “RAG7-889: saRNA duplex; sense UGGACCAGAAGUAAAGUGUTT (SEQ ID NO: 115), antisense ACACUUUACUUCUGGUCCATT (SEQ ID NO: 279) (sugars from the 5' end r19 d2, backbone not given here)” the same measures were 1.19 fold and 0.25 log2.
Consider “RAG7-710: saRNA duplex; sense GUUUUCUUCUCAGCCCAGGTT (SEQ ID NO: 122), antisense CCUGGGCUGAGAAGAAAACTT (SEQ ID NO: 286) (sugars from the 5' end r19 d2, backbone not given here)”, for which the “Fold of changes in relative LHPP mRNA expression level” value is 1.18 fold and the “Fold of changes in relative LHPP mRNA expression level (log2)” value is listed as 0.24 log2.
For the substance “RAG7-98: saRNA duplex; sense CCGAAAAGGACACCGUUUCTT (SEQ ID NO: 145), antisense GAAACGGUGUCCUUUUCGGTT (SEQ ID NO: 309) (sugars from the 5' end r19 d2, backbone not given here)”, the “Fold of changes in relative LHPP mRNA expression level” value worked out at 1.14 fold and the “Fold of changes in relative LHPP mRNA expression level (log2)” value is 0.19 log2.
For “RAG7-181: saRNA duplex; sense CUCAAUUUGCCUUUGACCUTT (SEQ ID NO: 97), antisense AGGUCAAAGGCAAAUUGAGTT (SEQ ID NO: 261) (sugars from the 5' end r19 d2, backbone not given here)” the same measures were 1.22 fold and 0.29 log2.
For “RAG7-109: saRNA duplex; sense GAAGAAAGCUUCCGAAAAGTT (SEQ ID NO: 90), antisense CUUUUCGGAAGCUUUCUUCTT (SEQ ID NO: 254) (sugars from the 5' end r19 d2, backbone not given here)” the same measures were 1.24 fold and 0.31 log2.
For the substance “RAG7-692: saRNA duplex; sense GUCCUAUGCAUCCUCAUCUTT (SEQ ID NO: 124), antisense AGAUGAGGAUGCAUAGGACTT (SEQ ID NO: 288) (sugars from the 5' end r19 d2, backbone not given here)”, the “Fold of changes in relative LHPP mRNA expression level” value was found to be 1.17 fold and the “Fold of changes in relative LHPP mRNA expression level (log2)” value is reported as 0.22 log2.
As to “RAG7-43: saRNA duplex; sense CAGUUCCGGGUUUGCACCCTT (SEQ ID NO: 93), antisense GGGUGCAAACCCGGAACUGTT (SEQ ID NO: 257) (sugars from the 5' end r19 d2, backbone not given here)”, the “Fold of changes in relative LHPP mRNA expression level” value is on record as 1.23 fold and the “Fold of changes in relative LHPP mRNA expression level (log2)” value came out at 0.30 log2.
In the same order, the values of “RAG7-826: saRNA duplex; sense AGGAAACUCCUCCCUUUUATT (SEQ ID NO: 157), antisense UAAAAGGGAGGAGUUUCCUTT (SEQ ID NO: 321) (sugars from the 5' end r19 d2, backbone not given here)” are 1.11 fold and 0.15 log2.
For the substance “RAG7-122: saRNA duplex; sense GCUGAUCUCCUGGGAAGAATT (SEQ ID NO: 103), antisense UUCUUCCCAGGAGAUCAGCTT (SEQ ID NO: 267) (sugars from the 5' end r19 d2, backbone not given here)”, the “Fold of changes in relative LHPP mRNA expression level” value is listed as 1.21 fold and the “Fold of changes in relative LHPP mRNA expression level (log2)” value stood at 0.28 log2.
In the same order, the values of “RAG7-709: saRNA duplex; sense UUUUCUUCUCAGCCCAGGUTT (SEQ ID NO: 126), antisense ACCUGGGCUGAGAAGAAAATT (SEQ ID NO: 290) (sugars from the 5' end r19 d2, backbone not given here)” are 1.17 fold and 0.22 log2.
For “RAG7-708: saRNA duplex; sense UUUCUUCUCAGCCCAGGUCTT (SEQ ID NO: 106), antisense GACCUGGGCUGAGAAGAAATT (SEQ ID NO: 270) (sugars from the 5' end r19 d2, backbone not given here)” the same measures were 1.21 fold and 0.27 log2.
For “RAG7-134: saRNA duplex; sense UGCUCUUUGUCCGCUGAUCTT (SEQ ID NO: 75), antisense GAUCAGCGGACAAAGAGCATT (SEQ ID NO: 239) (sugars from the 5' end r19 d2, backbone not given here)” the same measures were 1.28 fold and 0.36 log2.
Take “RAG7-143: saRNA duplex; sense UGCUUUUCCUGCUCUUUGUTT (SEQ ID NO: 102), antisense ACAAAGAGCAGGAAAAGCATT (SEQ ID NO: 266) (sugars from the 5' end r19 d2, backbone not given here)”: the “Fold of changes in relative LHPP mRNA expression level” value is recorded as 1.21 fold and the “Fold of changes in relative LHPP mRNA expression level (log2)” value is 0.28 log2.
In the same order, the values of “RAG7-837: saRNA duplex; sense AGGGGCCAUUGAGGAAACUTT (SEQ ID NO: 109), antisense AGUUUCCUCAAUGGCCCCUTT (SEQ ID NO: 273) (sugars from the 5' end r19 d2, backbone not given here)” are 1.20 fold and 0.26 log2.
For “RAG7-86: saRNA duplex; sense CCGUUUCAGGGGCGAGUGATT (SEQ ID NO: 137), antisense UCACUCGCCCCUGAAACGGTT (SEQ ID NO: 301) (sugars from the 5' end r19 d2, backbone not given here)” the same measures were 1.15 fold and 0.20 log2.
In the same order, the values of “RAG7-821: saRNA duplex; sense ACUCCUCCCUUUUAAUAUCTT (SEQ ID NO: 89), antisense GAUAUUAAAAGGGAGGAGUTT (SEQ ID NO: 253) (sugars from the 5' end r19 d2, backbone not given here)” are 1.25 fold and 0.32 log2.
